Experimental data as given in article PMC7156458, “Synthetic biology based construction of biological activity-related library of fungal decalin-containing diterpenoid pyrones” (Nature Communications, 2020).
Where two headings read alike, the source gives them in different places.

Key:
[1] = cytotoxicity in Drosophila DL1 cells; format: cell-based; conditions: Drosophila, DL1 cells (embryonic macrophage-derived), DL1 cells
Description: (§1) We screened the DDPs on the Drosophila assay system for cytotoxicity, inhibitory activity of innate immune signalling and insecticidal activity. The cytotoxicity of the DDPs was evaluated using two cell lines, embryonic macrophage-derived DL1 cells[58]–[60] and larval blood cell-derived l(2)mbn cells, and their IC50 values are listed in Supplementary Table 23.

DL1 cells = assay: cytotoxicity in Drosophila DL1 cells; format: cell-based; conditions: DL1 cells; for IC50: Drosophila melanogaster, cytotoxicity
Description: as §1

l(2)mbn cells = assay: cytotoxicity in Drosophila l(2)mbn cells; format: cell-based; conditions: for Luminescence Raw1: replicate 1; for Luminescence Raw2: replicate 2; for IC50: Drosophila melanogaster, cytotoxicity
Description: as §1

[2] = cytotoxicity in Drosophila l(2)mbn cells; format: cell-based; conditions: Drosophila, l(2)mbn cells (larval blood cell-derived)
Description: as §1

MCF-7 cells = assay: cell cytotoxic effects against MCF-7 cells (72 h), A490; format: cell-based, human; conditions: MCF-7, 72 h; for viability at 0.1 µM / viability at 1 µM / viability at 10 µM: Homo sapiens, MCF7, 72 h, read-out: A490 (control =1) ave
MAGI cells = assay: cytotoxicity in the anti-HIV assay (CC50); format: cell-based; conditions: single determinations
[3] = replicate 1, relative to DMSO 1%, read-out: % viability, viability 1
[4] = replicate 2, relative to DMSO 1%, read-out: % viability, viability 2
[5] = average of two replicates, read-out: IC50 Average
[6] = replicate 1, read-out: IC50 (1)
[7] = replicate 2, read-out: IC50 (2)
[8] = 0.1 µM (DMSO 0.002%), control 1.064
[9] = 1 µM (DMSO 0.02%), control 1.104
[10] = 10 µM (DMSO 0.2%), control 1.049

## C=C1CC[C@H]2[C@]3(C)C[C@H](C=C(C)C)O[C@H]3CC[C@]2(C)[C@@H]1Cc1c(O)c(C)c(C)oc1=O [Compound 6, subglutinol B]
[1]; [3]
  viability at 0.04 µM: 118%
  viability at 0.2 µM: 23.9%
  viability at 1 µM: 7.67%
  viability at 4 µM: 7.86%
  viability at 10 µM: 7.18%
  viability at 20 µM: 7.25%
[1]; [4]
  viability at 0.04 µM: 124%
  viability at 0.2 µM: 55.3%
  viability at 1 µM: 8.28%
  viability at 4 µM: 7.05%
  viability at 10 µM: 7.39%
  viability at 20 µM: 6.62%
DL1 cells; 0.04 µM, replicate 1
  Luminescence Raw1: 2426216
DL1 cells; 0.04 µM, replicate 2
  Luminescence Raw2: 2551013
DL1 cells; 0.2 µM, replicate 1
  Luminescence Raw1: 492518
DL1 cells; 0.2 µM, replicate 2
  Luminescence Raw2: 1138346
DL1 cells; 1 µM, replicate 1
  Luminescence Raw1: 157908
DL1 cells; 1 µM, replicate 2
  Luminescence Raw2: 170527
DL1 cells; 4 µM, replicate 1
  Luminescence Raw1: 161874
DL1 cells; 4 µM, replicate 2
  Luminescence Raw2: 145288
DL1 cells; 10 µM, replicate 1
  Luminescence Raw1: 147812
DL1 cells; 10 µM, replicate 2
  Luminescence Raw2: 152139
DL1 cells; 20 µM, replicate 1
  Luminescence Raw1: 149254
DL1 cells; 20 µM, replicate 2
  Luminescence Raw2: 136274
DL1 cells; [5]
  IC50: 234 nM
DL1 cells; average±SEM, read-out: IC50
  IC50: 230 ± 70 nM
DL1 cells; [6]
  IC50: 166 nM
DL1 cells; [7]
  IC50: 303 nM
l(2)mbn cells; 0.04 µM
  Luminescence Raw1: 3229071
  Luminescence Raw2: 3538217
l(2)mbn cells; 0.2 µM
  Luminescence Raw1: 3288590
  Luminescence Raw2: 2991720
l(2)mbn cells; 1 µM
  Luminescence Raw1: 424303
  Luminescence Raw2: 530313
l(2)mbn cells; 4 µM
  Luminescence Raw1: 220220
  Luminescence Raw2: 206879
l(2)mbn cells; 10 µM
  Luminescence Raw1: 225268
  Luminescence Raw2: 189211
l(2)mbn cells; 20 µM
  Luminescence Raw1: 213009
  Luminescence Raw2: 187048
l(2)mbn cells; [5]
  IC50: 850 nM
l(2)mbn cells; average±SEM, read-out: IC50
  IC50: 850 ± 10 nM
l(2)mbn cells; [6]
  IC50: 860 nM
l(2)mbn cells; [7]
  IC50: 838 nM
[2]; [3]
  viability at 0.04 µM: 126%
  viability at 0.2 µM: 128%
  viability at 1 µM: 16.5%
  viability at 4 µM: 8.58%
  viability at 10 µM: 8.78%
  viability at 20 µM: 8.3%
[2]; [4]
  viability at 0.04 µM: 138%
  viability at 0.2 µM: 117%
  viability at 1 µM: 20.7%
  viability at 4 µM: 8.06%
  viability at 10 µM: 7.37%
  viability at 20 µM: 7.29%
MCF-7 cells; 0.1 µM (DMSO 0.002%)
  viability at 0.1 µM: 55.9%
MCF-7 cells; 1 µM (DMSO 0.02%)
  viability at 1 µM: 109%
MCF-7 cells; 10 µM (DMSO 0.2%)
  viability at 10 µM: 22.4%
MCF-7 cells; [8]
  A490 ave: 0.595
MCF-7 cells; [9]
  A490 ave: 1.207
MCF-7 cells; [10]
  A490 ave: 0.235
MAGI cells
  Cytotoxicity: >10 µM

## C=C1CC[C@@H]2[C@](C)(CC[C@H]3O[C@H](C=C(C)C)C[C@@]23C)[C@@H]1Cc1c(O)c(C)c(C)oc1=O [Compound 10, higginsianin A]
[1]; [3]
  viability at 0.04 µM: 82.7%
  viability at 0.2 µM: 36.2%
  viability at 1 µM: 7.23%
  viability at 4 µM: 4.76%
  viability at 10 µM: 7.6%
  viability at 20 µM: 5.78%
[1]; [4]
  viability at 0.04 µM: 85.6%
  viability at 0.2 µM: 35%
  viability at 1 µM: 6.51%
  viability at 4 µM: 6.46%
  viability at 10 µM: 6.95%
  viability at 20 µM: 5.81%
DL1 cells; 0.04 µM, replicate 1
  Luminescence Raw1: 1703467
DL1 cells; 0.04 µM, replicate 2
  Luminescence Raw2: 1762974
DL1 cells; 0.2 µM, replicate 1
  Luminescence Raw1: 745666
DL1 cells; 0.2 µM, replicate 2
  Luminescence Raw2: 721146
DL1 cells; 1 µM, replicate 1
  Luminescence Raw1: 148910
DL1 cells; 1 µM, replicate 2
  Luminescence Raw2: 134127
DL1 cells; 4 µM, replicate 1
  Luminescence Raw1: 98071
DL1 cells; 4 µM, replicate 2
  Luminescence Raw2: 133046
DL1 cells; 10 µM, replicate 1
  Luminescence Raw1: 156482
DL1 cells; 10 µM, replicate 2
  Luminescence Raw2: 143141
DL1 cells; 20 µM, replicate 1
  Luminescence Raw1: 118984
DL1 cells; 20 µM, replicate 2
  Luminescence Raw2: 119705
DL1 cells; [5]
  IC50: 133 nM
DL1 cells; average±SEM, read-out: IC50
  IC50: 130 ± 10 nM
DL1 cells; [6]
  IC50: 132 nM
DL1 cells; [7]
  IC50: 133 nM
l(2)mbn cells; 0.04 µM
  Luminescence Raw1: 2899849
  Luminescence Raw2: 3256235
l(2)mbn cells; 0.2 µM
  Luminescence Raw1: 2762422
  Luminescence Raw2: 3200684
l(2)mbn cells; 1 µM
  Luminescence Raw1: 521407
  Luminescence Raw2: 1075282
l(2)mbn cells; 4 µM
  Luminescence Raw1: 189680
  Luminescence Raw2: 232227
l(2)mbn cells; 10 µM
  Luminescence Raw1: 176340
  Luminescence Raw2: 201579
l(2)mbn cells; 20 µM
  Luminescence Raw1: 149658
  Luminescence Raw2: 165883
l(2)mbn cells; [5]
  IC50: 630 nM
l(2)mbn cells; average±SEM, read-out: IC50
  IC50: 630 ± 100 nM
l(2)mbn cells; [6]
  IC50: 529 nM
l(2)mbn cells; [7]
  IC50: 734 nM
[2]; [3]
  viability at 0.04 µM: 113%
  viability at 0.2 µM: 108%
  viability at 1 µM: 20.3%
  viability at 4 µM: 7.39%
  viability at 10 µM: 6.87%
  viability at 20 µM: 5.83%
[2]; [4]
  viability at 0.04 µM: 127%
  viability at 0.2 µM: 125%
  viability at 1 µM: 41.9%
  viability at 4 µM: 9.05%
  viability at 10 µM: 7.85%
  viability at 20 µM: 6.46%
MCF-7 cells; 0.1 µM (DMSO 0.002%)
  viability at 0.1 µM: 62.9%
MCF-7 cells; 1 µM (DMSO 0.02%)
  viability at 1 µM: 94.3%
MCF-7 cells; 10 µM (DMSO 0.2%)
  viability at 10 µM: 17.9%
MCF-7 cells; [8]
  A490 ave: 0.669
MCF-7 cells; [9]
  A490 ave: 1.042
MCF-7 cells; [10]
  A490 ave: 0.188
MAGI cells
  Cytotoxicity: >10 µM
